Assays:
[1] = tested on: midbrain neurons derived from normal mice and D2R−/− mice; experiment: Differentiation of midbrain neurons into dopaminergic neural cells (TH immunostaining: number of TH-positive cells, neurite length, neurite number); type: cell-based; settings: for effect of the agent on the development of dopaminergic neural cells by EGF+quinpirole: co-treatment with EGF+quinpirole, normal mice and D2R−/− mice; for effect of the agent on the differentiation/development of dopaminergic neural cells by EGF: co-treatment with EGF, or siRNA knockdown before EGF
Procedure: Midbrain neurons derived from normal mice and D2R−/− mice were treated with each of EGF, EGF+haloperidol, EGF+AG1478 and EGF+PD98059, and then stained with TH by an immunostaining technique. Then, the number of TH-positive cells, the length of neurites and the number of neurites in the midbrain neurons were compared between EGF, EGF+haloperidol, EGF+AG1478 and EGF+PD98059 to determine the abilities to induce differentiation into dopaminergic neural cells.
Then, the number of TH-positive cells, the length of neurites and the number of neurites in the midbrain neurons were compared to determine the abilities to induce differentiation into dopaminergic neural cells.

ERK = experiment: Phosphorylation of ERK in midbrain neurons; type: cell-based, mice; settings: for effect of the agent on the phosphorylation of ERK by quinpirole: co-treatment with quinpirole, or siRNA knockdown before quinpirole; for effect of the agent on the phosphorylation of ERK by EGF: co-treatment with EGF

Molecule | effect of the agent on the development of dopaminergic neural cells by EGF+quinpirole [1] | effect of the agent on the differentiation/development of dopaminergic neural cells by EGF ([1]; midbrain neurons) | effect of the agent on the phosphorylation of ERK by quinpirole (ERK) | effect of the agent on the development of dopaminergic neural cells by quinpirole ([1]; co-treatment with quinpirole, or siRNA knockdown before quinpirole, midbrain neurons) | effect of the agent on the phosphorylation of ERK by EGF (ERK) | differentiation of dopaminergic neural cells from midbrain neurons ([1]; treated with the agent alone, normal mouse and D2R−/− mouse midbrain neurons, TH immunostaining) | phosphorylation of ERK by the agent (ERK; compared to that in the control) [%]
COc1cc2ncnc(Nc3cccc(Cl)c3)c2cc1OC [AG1478] | inhibited to the basal level | completely blocked | inhibited |  |  |  | 
CNC(=O)[C@H](Cc1c[nH]c2ccccc12)NC(=O)[C@H](CC(=O)NO)CC(C)C [GM6001, (2S)—N4-hydroxy-N1-[(1S)-1-(1H-indol-3-ylmethyl)-2-(methylamino)-2-oxoethyl]-2-isobutylsuccinamide] |  | not inhibited | inhibited to the basal level | inhibited | not influenced |  | 
COc1cccc(-c2cc(=O)c3ccccc3o2)c1N [PD98059] |  | completely blocked |  |  |  |  | 
O=C(CCCN1CCC(O)(c2ccc(Cl)cc2)CC1)c1ccc(F)cc1 [haloperidol] | not inhibited | not blocked |  |  | not inhibited |  | 
EGF: epidermal growth factor (NSDSECPLSHDGYCLHDGVCMYIEALDKYACNCVVGYIGERCQYRDLKWWELR; Epidermal growth factor; UniProt P01133 971-1023, looked up) |  |  |  |  |  | promoted | 417
